# Experimental data published in US4332891A, “Process for the production of antibiotic Cephamycin C” (Otsuka Pharmaceutical Co., Ltd., priority 1979, dated 1982).
# Assays:
# [1] = tested on: Salmonella typhi 0-901 NCTC 8393; test: Antimicrobial spectrum (MIC); format: cell-based; settings: Salmonella enterica
# From the text: (§1) The antimicrobial spectra to various microorganisms of the Cephamycin C produced by the process of this invention are shown as minimum inhibitory concentrations (MIC) in Table 4.
# Sarcina lutea PCI 1001 = test: Antimicrobial spectrum (MIC); format: cell-based; settings: Micrococcus luteus, PCI1001
# From the text: as §1
# Esherichia coli NIHJ = test: Antimicrobial spectrum (MIC); format: cell-based
# From the text: as §1
# [2] = tested on: Staphylococcus aureus Newman; test: Antimicrobial spectrum (MIC); format: cell-based
# From the text: as §1
# Proteus mirabilis 1287 = test: Antimicrobial spectrum (MIC); format: cell-based
# From the text: as §1
# [3] = tested on: Proteus vulgaris IID OX-19; test: Antimicrobial spectrum (MIC); format: cell-based; settings: IIDOX19
# From the text: as §1
# [4] = tested on: Staphylococcus aureus FDA 209P; test: Antimicrobial spectrum (MIC); format: cell-based; settings: FDA209P
# From the text: as §1
# [5] = tested on: Bacillus subtilis PCI 219; test: Antimicrobial spectrum (MIC); format: cell-based; settings: PCI219
# From the text: as §1
# Solubility = format: physicochemical
smiles,measurement,setting,value
"COC1(NC(=O)CCCC(N)C(=O)O)C(=O)N2C(C(=O)O)=C(COC(N)=O)CS[C@@H]21 (some centres unmarked) [Cephamycin C, 7-(5-amino-5-carboxyvalerylamino)-3-carbamoyloxymethyl-7-methoxy-3-cephem-4-carboxylic acid]",MIC,[1],3.9 µg/mL
same,MIC,Sarcina lutea PCI 1001,15.6 µg/mL
same,MIC,Esherichia coli NIHJ,15.6 µg/mL
same,MIC,[2],250 µg/mL
same,MIC,Proteus mirabilis 1287,7.8 µg/mL
same,MIC,[3],7.8 µg/mL
same,MIC,[4],250 µg/mL
same,MIC,[5],15.6 µg/mL
same,Solubility,Solubility; in dimethylsulfoxide,slightly soluble in dimethylsulfoxide
same,Solubility,Solubility; in ethanol,sparingly soluble in ethanol
same,Solubility,Solubility; in water,well soluble in water
